Test results taken from patent US11208386B2, “Inhibitors of protein arginine deiminases (PADs) and methods of preparation and use thereof” (University of Massachusetts, priority 2016, dated 2021).

Legend:
Assay type in all cases: biochemical
PAD1 = target: T1, PAD1 (Homo sapiens, UniProt Q9ULC6); assay: Inactivation kinetics, PAD1; conditions: for kinact/KI: a: single kobs determined, b: from a linear fit; for Fold PAD1 Selectivity: kinact/KI relative to least inhibited isozyme (1.0)
T1 construct: made in house
T1 sequence (Q9ULC6 1-663): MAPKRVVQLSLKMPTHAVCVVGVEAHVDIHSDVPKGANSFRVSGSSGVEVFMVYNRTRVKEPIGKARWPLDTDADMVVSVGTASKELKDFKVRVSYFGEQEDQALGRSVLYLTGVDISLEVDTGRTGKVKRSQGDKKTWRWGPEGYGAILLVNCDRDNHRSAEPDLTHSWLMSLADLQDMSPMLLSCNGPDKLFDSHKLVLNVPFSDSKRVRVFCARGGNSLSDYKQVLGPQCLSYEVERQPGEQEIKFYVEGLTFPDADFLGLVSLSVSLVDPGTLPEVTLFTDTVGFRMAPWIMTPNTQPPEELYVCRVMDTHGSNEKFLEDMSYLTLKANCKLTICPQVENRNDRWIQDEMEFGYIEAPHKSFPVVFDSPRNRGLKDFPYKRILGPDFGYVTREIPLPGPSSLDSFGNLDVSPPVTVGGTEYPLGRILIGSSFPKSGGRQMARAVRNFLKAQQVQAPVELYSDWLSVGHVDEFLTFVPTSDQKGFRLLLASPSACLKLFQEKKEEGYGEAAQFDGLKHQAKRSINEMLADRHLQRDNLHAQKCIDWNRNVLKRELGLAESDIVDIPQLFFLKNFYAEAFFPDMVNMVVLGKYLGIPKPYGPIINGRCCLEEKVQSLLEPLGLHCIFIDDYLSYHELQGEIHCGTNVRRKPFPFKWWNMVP
Experimental: (§1) Inactivation kinetic parameters were determined by incubating PAD1, 2, or 4 (2.0 μM) or PAD3 (5.0 μM) in a pre-warmed (10 min; 37° C.) inactivation mixture (50 mM HEPES, 10 mM CaCl2, and 2 mM DTT, pH 7.6, with a final volume of 60 μL) containing various concentrations of inhibitor. Aliquots were removed at various time points and added to a pre-warmed (10 min, 37° C.) reaction mixture (50 mM HEPES, 50 mM NaCl, 10 mM CaC2, 2 mM DTT, and 10 mM BAEE or 10 mM BAA in the case of PAD3; pH 7.6). After 15 min, reactions were quenched in liquid nitrogen and citrulline production quantified using the COLDER assay. […] In Vitro Labeling of PADs with “Clickable” Probes BB-F-Yne (5u), BB-Cl-Yne (5v) and BIFYne (5w)

PAD2 = target: T2, PAD2 (Homo sapiens, UniProt Q9Y2J8); assay: Inactivation kinetics, PAD2; conditions: for kinact/KI: a: single kobs determined, b: from a linear fit, other footnotes: from kinact and KI; for Fold PAD2 Selectivity: kinact/KI relative to least inhibited isozyme (1.0)
T2 construct: made in house
Experimental: as §1

PAD3 = target: T3, PAD3 (Homo sapiens, UniProt Q9ULW8); assay: Inactivation kinetics, PAD3; conditions: for kinact/KI: a: single kobs determined; for Fold PAD3 Selectivity: kinact/KI relative to least inhibited isozyme (1.0)
T3 construct: made in house
T3 sequence (Q9ULW8 1-664): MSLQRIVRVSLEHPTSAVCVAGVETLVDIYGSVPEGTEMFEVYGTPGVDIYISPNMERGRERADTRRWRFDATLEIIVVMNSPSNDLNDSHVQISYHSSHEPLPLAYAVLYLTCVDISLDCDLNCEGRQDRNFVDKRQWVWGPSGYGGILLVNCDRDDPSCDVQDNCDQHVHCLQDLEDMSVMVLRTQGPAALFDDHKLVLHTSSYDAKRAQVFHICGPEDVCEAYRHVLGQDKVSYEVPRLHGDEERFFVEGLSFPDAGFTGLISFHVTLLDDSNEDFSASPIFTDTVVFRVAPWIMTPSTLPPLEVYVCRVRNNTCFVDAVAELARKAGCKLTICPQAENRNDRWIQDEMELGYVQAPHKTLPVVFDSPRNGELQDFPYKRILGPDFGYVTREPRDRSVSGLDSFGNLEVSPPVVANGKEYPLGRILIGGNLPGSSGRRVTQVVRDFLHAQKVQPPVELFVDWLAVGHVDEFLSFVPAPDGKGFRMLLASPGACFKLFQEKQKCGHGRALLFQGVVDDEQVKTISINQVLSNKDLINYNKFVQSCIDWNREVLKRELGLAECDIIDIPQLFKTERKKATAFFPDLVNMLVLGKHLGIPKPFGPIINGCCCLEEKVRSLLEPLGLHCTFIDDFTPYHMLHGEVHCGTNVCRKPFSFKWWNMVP
Experimental: as §1

PAD4 = target: T4, PAD4 (Homo sapiens, UniProt Q9UM07); assay: Inactivation kinetics, PAD4; conditions: for kinact/KI: a: single kobs determined, b: from a linear fit; for Fold PAD4 Selectivity: kinact/KI relative to least inhibited isozyme (1.0)
T4 construct: made in house
Experimental: as §1

T2 sequence (Q9Y2J8 whole entry): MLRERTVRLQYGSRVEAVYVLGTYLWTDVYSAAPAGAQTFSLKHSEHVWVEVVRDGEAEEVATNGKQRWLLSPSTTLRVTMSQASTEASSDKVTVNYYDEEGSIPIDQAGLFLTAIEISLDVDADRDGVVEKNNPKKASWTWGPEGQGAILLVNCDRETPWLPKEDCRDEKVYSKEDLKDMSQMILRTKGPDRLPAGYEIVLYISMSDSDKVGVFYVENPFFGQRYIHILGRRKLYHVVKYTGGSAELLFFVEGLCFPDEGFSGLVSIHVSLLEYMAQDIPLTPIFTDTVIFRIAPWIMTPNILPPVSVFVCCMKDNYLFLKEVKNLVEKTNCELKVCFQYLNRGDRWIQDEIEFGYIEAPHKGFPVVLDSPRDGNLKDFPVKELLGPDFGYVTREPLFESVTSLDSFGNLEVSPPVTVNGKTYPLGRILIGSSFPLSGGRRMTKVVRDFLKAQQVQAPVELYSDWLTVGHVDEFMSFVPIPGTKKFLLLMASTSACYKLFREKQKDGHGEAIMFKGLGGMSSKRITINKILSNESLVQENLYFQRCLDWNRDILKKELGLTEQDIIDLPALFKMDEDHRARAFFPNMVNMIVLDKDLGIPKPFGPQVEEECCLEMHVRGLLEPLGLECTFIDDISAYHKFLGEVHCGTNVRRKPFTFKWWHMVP
T4 sequence (Q9UM07 whole entry): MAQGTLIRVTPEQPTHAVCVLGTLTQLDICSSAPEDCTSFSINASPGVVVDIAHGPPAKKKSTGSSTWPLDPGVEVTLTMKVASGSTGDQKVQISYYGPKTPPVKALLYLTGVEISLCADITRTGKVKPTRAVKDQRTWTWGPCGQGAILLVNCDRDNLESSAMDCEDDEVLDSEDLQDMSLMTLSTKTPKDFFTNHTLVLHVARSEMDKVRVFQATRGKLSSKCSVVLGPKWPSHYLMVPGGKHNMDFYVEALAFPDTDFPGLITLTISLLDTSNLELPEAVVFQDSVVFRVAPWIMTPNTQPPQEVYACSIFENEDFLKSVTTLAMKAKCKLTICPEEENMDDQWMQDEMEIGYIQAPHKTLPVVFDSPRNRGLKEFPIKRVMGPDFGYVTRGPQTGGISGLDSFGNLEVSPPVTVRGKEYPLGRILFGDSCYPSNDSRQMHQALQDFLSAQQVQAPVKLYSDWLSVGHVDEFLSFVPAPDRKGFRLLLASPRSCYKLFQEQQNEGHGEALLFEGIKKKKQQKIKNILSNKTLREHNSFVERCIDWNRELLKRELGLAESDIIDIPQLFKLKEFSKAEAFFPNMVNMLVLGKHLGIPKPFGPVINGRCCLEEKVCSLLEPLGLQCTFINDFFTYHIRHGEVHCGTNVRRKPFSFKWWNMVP

With `N=C(CF)NCCC[C@H](NC(=O)c1ccc(-c2ccccc2)cc1)c1nc2cc(F)c(F)cc2[nH]1` [Compound 5q, N1-[1,1′-Phenyl]benzoyl-N5-(2-fluoro-1-iminoethyl)-1-(5,6-difluoro-1H-benzo[d]imidazol-2-yl)-L-ornithine] the kinact/KI (PAD1) was 31 M⁻¹ s⁻¹, the “Fold PAD1 Selectivity” value (PAD1) was 1.2 fold and the kinact/KI (PAD2) was 26.2 M⁻¹ s⁻¹. The “Fold PAD2 Selectivity” value (PAD2) was 1.0 fold, the kinact/KI (PAD3) was 25.5 M⁻¹ s⁻¹ and the “Fold PAD3 Selectivity” value (PAD3) was 1.0 fold. For the same molecule, the kinact/KI (PAD4) was 60 M⁻¹ s⁻¹ and the “Fold PAD4 Selectivity” value (PAD4) was 2.4 fold.

`N=C(CCl)NCCC[C@H](NC(=O)c1ccc(-c2ccccc2)cc1)c1nc2cc(F)c(F)cc2[nH]1` [Compound 5r, N1-[1,1′-Phenyl]benzoyl-N5-(2-chloro-1-iminoethyl)-1-(5,6-difluoro-1H-benzo[d]imidazol-2-yl)-L-ornithine] was tested, and the kinact/KI (PAD1) was 457 M⁻¹ s⁻¹, the “Fold PAD1 Selectivity” value (PAD1) was 4.9 fold and the kinact/KI (PAD2) was 93.3 M⁻¹ s⁻¹. For the same molecule, the “Fold PAD2 Selectivity” value (PAD2) was 1.0 fold, the kinact/KI (PAD3) was 239 M⁻¹ s⁻¹ and the “Fold PAD3 Selectivity” value (PAD3) was 2.6 fold. For the same molecule, the kinact/KI (PAD4) was 337 M⁻¹ s⁻¹ and the “Fold PAD4 Selectivity” value (PAD4) was 3.6 fold.

With `N=C(CF)NCCC[C@H](NC(=O)c1ccc(-c2ccc(F)cc2)cc1)c1nc2cc(F)c(F)cc2[nH]1` [Compound 5s, N1-4′-F-[1,1′-Phenyl]benzoyl-N5-(2-fluoro-1-iminoethyl)-1-(5,6-difluoro-1H-benzo[d]imidazol-2-yl)-L-omithine] the kinact/KI (PAD1) was 29.8 M⁻¹ s⁻¹, the “Fold PAD1 Selectivity” value (PAD1) was 1.6 fold and the kinact/KI (PAD2) was 23.7 M⁻¹ s⁻¹. For the same molecule, the “Fold PAD2 Selectivity” value (PAD2) was 1.3 fold, the kinact/KI (PAD3) was 18.3 M⁻¹ s⁻¹ and the “Fold PAD3 Selectivity” value (PAD3) was 1.0 fold. The kinact/KI (PAD4) was 67.3 M⁻¹ s⁻¹ and the “Fold PAD4 Selectivity” value (PAD4) was 3.7 fold.

For `N=C(CCl)NCCC[C@H](NC(=O)c1ccc(-c2ccc(F)cc2)cc1)c1nc2cc(F)c(F)cc2[nH]1` [Compound 5t, N1-4′-F-[1,1′-Phenyl]benzoyl-N5-(2-chloro-1-iminoethyl)-1-(5,6-difluoro-1H-benzo[d]imidazol-2-yl)-L-omithine], the kinact/KI (PAD1) was 508 M⁻¹ s⁻¹, the “Fold PAD1 Selectivity” value (PAD1) was 5.3 fold and the kinact/KI (PAD2) was 95.5 M⁻¹ s⁻¹. The “Fold PAD2 Selectivity” value (PAD2) was 1.0 fold, the kinact/KI (PAD3) was 120 M⁻¹ s⁻¹ and the “Fold PAD3 Selectivity” value (PAD3) was 1.3 fold. For the same molecule, the kinact/KI (PAD4) was 354 M⁻¹ s⁻¹ and the “Fold PAD4 Selectivity” value (PAD4) was 3.7 fold.

With `C#Cc1ccc(-c2ccc(C(=O)N[C@@H](CCCNC(=N)CCl)c3nc4ccccc4[nH]3)cc2)cc1` [Compound 5v, N1-4′-ethynyl-[1,1′-Phenyl]benzol-N5-(2-chloro-1-iminoethyl)-1-(1H-benzo[d]imidazol-2-yl)-L-ornithine] the kinact/KI (PAD1) was 6.92 M⁻¹ s⁻¹, the “Fold PAD1 Selectivity” value (PAD1) was 1.1 fold and the kinact/KI (PAD2) was 14.6 M⁻¹ s⁻¹. The “Fold PAD2 Selectivity” value (PAD2) was 2.3 fold, the kinact/KI (PAD3) was 6.25 M⁻¹ s⁻¹ and the “Fold PAD3 Selectivity” value (PAD3) was 1.0 fold. The kinact/KI (PAD4) was 21.7 M⁻¹ s⁻¹ and the “Fold PAD4 Selectivity” value (PAD4) was 3.5 fold.

For `N=C(CF)NCCC[C@H](NC(=O)c1ccccc1C(=O)O)c1nc2ccccc2[nH]1` [Compound 6a, N1-(2-Carboxyl)benzol-N5-(2-fluoro-1-iminoethyl)-1-(1H-benzo[d]imidazol-2-yl)-L-ornithine], the kinact/KI (PAD1) was 275 M⁻¹ s⁻¹, the “Fold PAD1 Selectivity” value (PAD1) was 11 fold and the kinact/KI (PAD2) was 25 M⁻¹ s⁻¹. For the same molecule, the “Fold PAD2 Selectivity” value (PAD2) was 1.0 fold, the kinact/KI (PAD3) was 108 M⁻¹ s⁻¹ and the “Fold PAD3 Selectivity” value (PAD3) was 4.3 fold. For the same molecule, the kinact/KI (PAD4) was 405 M⁻¹ s⁻¹ and the “Fold PAD4 Selectivity” value (PAD4) was 16 fold.

`N=C(CCl)NCCC[C@H](NC(=O)c1ccccc1C(=O)O)c1nc2ccccc2[nH]1` [Compound 6b, N1-(2-Carboxyl)benzol-N5-(2-chloro-1-iminoethyl)-1-(1H-benzo[d]imidazol-2-yl)-L-omithine] was tested, and the kinact/KI (PAD1) was 475 M⁻¹ s⁻¹, the “Fold PAD1 Selectivity” value (PAD1) was 8.3 fold and the kinact/KI (PAD2) was 57.5 M⁻¹ s⁻¹. For the same molecule, the “Fold PAD2 Selectivity” value (PAD2) was 1.0 fold, the kinact/KI (PAD3) was 354 M⁻¹ s⁻¹ and the “Fold PAD3 Selectivity” value (PAD3) was 6.2 fold. The kinact/KI (PAD4) was 517 M⁻¹ s⁻¹ and the “Fold PAD4 Selectivity” value (PAD4) was 9.0 fold.

In the case of `Cn1c([C@H](CCCNC(=N)CF)NC(=O)c2ccccc2C(=O)O)nc2ccccc21` [Compound 6c, N1-(2-Carboxyl)benzoyl-N5-(2-fluoro-1-iminoethyl)-1-(1-methyl-benzo[d]imidazol-2-yl)-L-ornithine], the kinact/KI (PAD1) is reported as 538 M⁻¹ s⁻¹, the “Fold PAD1 Selectivity” value (PAD1) is reported as 40 fold and the kinact/KI (PAD2) is reported as 197 M⁻¹ s⁻¹. The “Fold PAD2 Selectivity” value (PAD2) was 15 fold, the kinact/KI (PAD3) was 17.2 M⁻¹ s⁻¹ and the “Fold PAD3 Selectivity” value (PAD3) was 1.3 fold. For the same molecule, the kinact/KI (PAD4) was 13.3 M⁻¹ s⁻¹ and the “Fold PAD4 Selectivity” value (PAD4) was 1.0 fold.

For `Cn1c([C@H](CCCNC(=N)CCl)NC(=O)c2ccccc2C(=O)O)nc2ccccc21` [Compound 6d, N1-(2-Carboxyl)benzoyl-N5-(2-chloro-1-iminoethyl)-1-(1-methyl-benzo[d]imidazol-2-yl)-L-ornithine], the kinact/KI (PAD1) was 537 M⁻¹ s⁻¹, the “Fold PAD1 Selectivity” value (PAD1) was 4.3 fold and the kinact/KI (PAD2) was 240 M⁻¹ s⁻¹. The “Fold PAD2 Selectivity” value (PAD2) was 1.9 fold, the kinact/KI (PAD3) was 125 M⁻¹ s⁻¹ and the “Fold PAD3 Selectivity” value (PAD3) was 1.0 fold. The kinact/KI (PAD4) was 130 M⁻¹ s⁻¹ and the “Fold PAD4 Selectivity” value (PAD4) was 1.0 fold.

In the case of `CCn1c([C@H](CCCNC(=N)CF)NC(=O)c2ccccc2C(=O)O)nc2ccccc21` [Compound 6e, N1-(2-Carboxyl)benzoyl-N5-(2-fluoro-1-iminoethyl)-1-(1-ethyl-benzo[d]imidazol-2-yl)-L-ornithine], the kinact/KI (PAD1) is reported as 650 M⁻¹ s⁻¹, the “Fold PAD1 Selectivity” value (PAD1) is reported as 39 fold and the kinact/KI (PAD2) is reported as 527 M⁻¹ s⁻¹. The “Fold PAD2 Selectivity” value (PAD2) was 31 fold, the kinact/KI (PAD3) was 29.2 M⁻¹ s⁻¹ and the “Fold PAD3 Selectivity” value (PAD3) was 1.7 fold. The kinact/KI (PAD4) was 16.8 M⁻¹ s⁻¹ and the “Fold PAD4 Selectivity” value (PAD4) was 1.0 fold.

For `CCn1c([C@H](CCCNC(=N)CCl)NC(=O)c2ccccc2C(=O)O)nc2ccccc21` [Compound 6f, N1-(2-Carboxyl)benzoyl-N5-(2-chloro-1-iminoethyl)-1-(1-ethyl-benzo[d]imidazol-2-yl)-L-ornithine], the kinact/KI (PAD1) was 785 M⁻¹ s⁻¹, the “Fold PAD1 Selectivity” value (PAD1) was 4.3 fold and the kinact/KI (PAD2) was 290 M⁻¹ s⁻¹. For the same molecule, the “Fold PAD2 Selectivity” value (PAD2) was 1.6 fold, the kinact/KI (PAD3) was 183 M⁻¹ s⁻¹ and the “Fold PAD3 Selectivity” value (PAD3) was 1.0 fold. The kinact/KI (PAD4) was 228 M⁻¹ s⁻¹ and the “Fold PAD4 Selectivity” value (PAD4) was 1.2 fold.

`CC(C)n1c([C@H](CCCNC(=N)CF)NC(=O)c2ccccc2C(=O)O)nc2ccccc21` [Compound 6g, N1-(2-Carboxyl)benzoyl-N5-(2-fluoro-1-iminoethyl)-1-(1-isopropyl-benzo[d]imidazol-2-yl)-L-ornithine] was tested, and the kinact/KI (PAD1) was 378 M⁻¹ s⁻¹, the “Fold PAD1 Selectivity” value (PAD1) was 49 fold and the kinact/KI (PAD2) was 412 M⁻¹ s⁻¹. The “Fold PAD2 Selectivity” value (PAD2) was 54 fold, the kinact/KI (PAD3) was 33.5 M⁻¹ s⁻¹ and the “Fold PAD3 Selectivity” value (PAD3) was 4.4 fold. For the same molecule, the kinact/KI (PAD4) was 7.67 M⁻¹ s⁻¹ and the “Fold PAD4 Selectivity” value (PAD4) was 1.0 fold.

With `CC(C)n1c([C@H](CCCNC(=N)CCl)NC(=O)c2ccccc2C(=O)O)nc2ccccc21` [Compound 6h, N1-(2-Carboxyl)benzoyl-N5-(2-chloro-1-iminoethyl)-1-(1-isopropyl-benzo[d]imidazol-2-yl)-L-ornithine] the kinact/KI (PAD1) was 817 M⁻¹ s⁻¹, the “Fold PAD1 Selectivity” value (PAD1) was 68 fold and the kinact/KI (PAD2) was 452 M⁻¹ s⁻¹. For the same molecule, the “Fold PAD2 Selectivity” value (PAD2) was 38 fold, the kinact/KI (PAD3) was 45 M⁻¹ s⁻¹ and the “Fold PAD3 Selectivity” value (PAD3) was 3.8 fold. For the same molecule, the kinact/KI (PAD4) was 12 M⁻¹ s⁻¹ and the “Fold PAD4 Selectivity” value (PAD4) was 1.0 fold.
